For data set [1], the system named is Uptake of Phosphorus from the Intestine. Description: In vivo co-dosing in chow (urine P out / P consumed). To be noted: Rattus norvegicus, feed or water, rats, compound in chow, read-out: Mean % inhibition Urine Pout/P consumed. The text has this:
Male, 7-week-old Sprague-Dawley rats (Charles-River laboratories international, Hollister, Calif.) were allowed to acclimate for a minimum of 3 days. The experiment was initiated by switching animals to a synthetic diet (0.6% phosphorus and 0.6% calcium, Harlan Teklad TD.84122) for four days. After this time, the animals were placed into metabolic cages for daily monitoring of food and water consumption, as well as urine and fecal collections. Test compounds were incorporated into the powdered diet listed above containing 3% chocolate flavoring (w/w, BioServ #7345) at 1.3 mg test compound per gram of diet to achieve an average daily nominal dose of 100 mg/kg/day. The actual dose received by each animal was later determined by measuring prepared diet consumption and body weight. Urine samples were collected in three daily periods from 24-48, 48-72, and 72-96 hours of drug dosing. Averaging these three 24 h periods allows for the more representative measurements of urination, fecal excretion, food consumption and water uptake for each animal. Phosphorus levels in the urine were determined by anion exchange chromatography using a Dionex ICS-3000 ion chromatography system. Urine samples were diluted 1:500 or 1:1000 and injected onto an IonPac AS18 analytical column (2×250 mm) using a potassium hydroxide eluent. Elution of urine phosphate ions was monitored via conductivity detector and reported as ppm relative to a standard ion solution containing phosphate. Daily urinary P output relative to the P consumed in the prepared diet for each animal was calculated. The percentage inhibition of phosphorus absorption was estimated by determining the reduction of this ratio compared to the control group (animals with no drug in chow). The differences between the means of control and treated groups were evaluated by t tests. In all experiments, one group was always included that had Renvela powder blended into their chow at 0.9% targeting a dose of 750 mg/kg.

Data set [2] in a line: Determination of compound Cmax and AUC after oral gavage (plasma LC-MS/MS). It is filed as in vivo, Sprague-Dawley rats. To be noted: Sprague-Dawley, rat, plasma, po, Structure (I) examples. In outline:
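Sprague-Dawley rats dosed by oral gavage at nominal 2.5 or 10 mg/kg; blood drawn at 0.5, 1, 2 and 4 h into K2EDTA. Plasma protein-precipitated with acetonitrile plus internal standard and analysed by LC-MS/MS against a plasma standard curve to derive Cmax and AUC.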

Data set [3] is described as follows: Stability of compounds in simulated intestinal fluid (SIF). To be noted: simulated intestinal fluid (3 mg/mL pancreatin), incubation time 6 hr, relative to t=0. It counts as in vitro ADME. In outline: (§1)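 Compounds at […] were incubated 3 or 6 hr in USP simulated gastric fluid with 3 mg/mL pepsin or simulated intestinal fluid with 3 mg/mL pancreatin. Remaining compound was quantified by HPLC-UV or HPLC-MS peak area % and reported as percent of the t=0 level in the same medium.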

The nature of data set [4]: Stability of compounds in simulated gastric fluid (SGF). To be noted: simulated gastric fluid (3 mg/mL pepsin), incubation time 6 hr, relative to t=0. It counts as in vitro ADME. In outline:
as §1

In data set [5] the target is T1, rat NaP2b (SLC34A2) (Rattus norvegicus, UniProt Q9JJ09).
T1 construct: host or cells: HEK293
T1 sequence (Q9JJ09 1-695): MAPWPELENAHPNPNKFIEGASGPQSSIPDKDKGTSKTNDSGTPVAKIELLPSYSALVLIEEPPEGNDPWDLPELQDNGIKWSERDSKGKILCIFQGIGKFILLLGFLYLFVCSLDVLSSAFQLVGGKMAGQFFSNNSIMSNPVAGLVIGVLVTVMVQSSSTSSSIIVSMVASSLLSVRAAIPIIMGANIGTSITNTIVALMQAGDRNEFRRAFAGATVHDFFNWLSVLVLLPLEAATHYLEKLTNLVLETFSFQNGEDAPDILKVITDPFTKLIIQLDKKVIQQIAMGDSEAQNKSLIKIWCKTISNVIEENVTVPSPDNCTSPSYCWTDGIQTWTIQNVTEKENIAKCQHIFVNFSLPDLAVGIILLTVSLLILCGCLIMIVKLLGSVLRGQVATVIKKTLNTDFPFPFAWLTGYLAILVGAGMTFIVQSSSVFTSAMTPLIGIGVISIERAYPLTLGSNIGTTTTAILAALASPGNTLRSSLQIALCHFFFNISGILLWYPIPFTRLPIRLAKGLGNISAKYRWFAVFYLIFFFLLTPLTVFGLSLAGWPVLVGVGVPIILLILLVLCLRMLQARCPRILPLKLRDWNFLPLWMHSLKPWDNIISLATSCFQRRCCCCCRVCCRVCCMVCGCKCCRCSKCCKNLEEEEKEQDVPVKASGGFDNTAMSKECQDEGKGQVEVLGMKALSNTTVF
Description: Inhibition of NaP2b-mediated Pi (33P) uptake in transfected HEK293 cells, rat NaP2b. It is filed as cell-based. The settings on record: 33P Pi uptake, 0.1 mM phosphate, value given as pIC50 range. In outline:
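HEK293 cells were transiently transfected with NaP2b cDNA using Lipofectamine and grown near confluence. Compounds were tested at twelve concentrations from 0.1 nM to 30 uM in duplicate, and 33P-phosphate uptake was counted by scintillation after lysis. Results are expressed as pIC50.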

The target of data set [6] is T2, human NaP2b (SLC34A2) (Homo sapiens, UniProt O95436).
T2 construct: host or cells: HEK293
T2 sequence (O95436 1-690): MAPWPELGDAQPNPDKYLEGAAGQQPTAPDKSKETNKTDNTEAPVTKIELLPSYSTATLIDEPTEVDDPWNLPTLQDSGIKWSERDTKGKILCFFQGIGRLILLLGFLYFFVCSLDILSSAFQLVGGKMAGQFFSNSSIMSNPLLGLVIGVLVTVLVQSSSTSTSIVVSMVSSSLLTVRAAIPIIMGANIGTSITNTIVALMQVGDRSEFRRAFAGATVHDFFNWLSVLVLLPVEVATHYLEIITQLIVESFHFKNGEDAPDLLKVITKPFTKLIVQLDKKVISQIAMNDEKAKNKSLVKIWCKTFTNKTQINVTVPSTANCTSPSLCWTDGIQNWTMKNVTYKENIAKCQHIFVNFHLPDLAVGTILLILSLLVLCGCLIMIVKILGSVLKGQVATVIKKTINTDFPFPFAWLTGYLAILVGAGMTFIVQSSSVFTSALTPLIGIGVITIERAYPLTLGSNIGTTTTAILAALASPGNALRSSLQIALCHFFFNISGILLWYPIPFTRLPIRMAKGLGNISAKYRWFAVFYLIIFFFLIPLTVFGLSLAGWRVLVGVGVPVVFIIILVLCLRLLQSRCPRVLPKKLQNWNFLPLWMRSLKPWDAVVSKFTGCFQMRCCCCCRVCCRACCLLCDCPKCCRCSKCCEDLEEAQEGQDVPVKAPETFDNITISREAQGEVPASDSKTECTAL
Put plainly: Inhibition of NaP2b-mediated Pi (33P) uptake in transfected HEK293 cells, human NaP2b. To be noted: read-out: pIC50 range for human NaP2b (converted). It counts as cell-based. A digest of the protocol:
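HEK293 cells transiently transfected with human NaP2b (Thr inserted after residue 37, N39D), endogenous PiT transport pharmacologically silenced. Sodium or choline buffer, pH 7.4, with 100 uM KH2PO4, 33P orthophosphate and compound (0.1 nM–30 uM, twelve concentrations, duplicate). 3-30 min at room temperature, scintillation counting, pIC50 derived.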

Where [7] appears, read: Table 15, actual oral dose 3-15 mg/kg, plasma 0.5-4 h.
[8] abbreviates: Table 15, actual oral dose 15-40 mg/kg, plasma 0.5-4 h.

Take `CCN(CC)c1ccc(NC(=O)c2cccc(C(=O)N(C)CCN3CCOCC3)c2)c(-c2cc(C(=O)NCc3cccc(C(F)(F)F)c3)ccn2)c1` [Example 25]: the inhibition in vivo at 74 mg/kg/day in data set [1] (mean drug dose 74 mg/kg/day) is 10 to 30%. Further, in data set [2] (setting [7]), the AUC – broadly, concentration integrated over time – is < 30 ng·h/mL and the Cmax (as a rule, the highest concentration seen after dosing) was < 30 ng/mL.

Regarding `CCN(CC)c1ccc(NC(=O)c2cccc(C(=O)N(C)CCN3CCC[C@H]3C(=O)NCCOCCOCCOCCOCCOCCOCCOCCOC)c2)c(-c2cc(C(=O)N[C@H]3CCCc4ccccc43)ccn2)c1` [Example 196, N^1-(2-((S)-2-(2,5,8,11,14,17,20,23-octaoxapentacosan-25-ylcarbamoyl)pyrrolidin-1-yl)ethyl)-N^3-(4-(diethylamino)-2-(4-(((S)-1,2,3,4-tetrahydronaphthalen-1-yl)carbamoyl)pyridin-2-yl)phenyl)-N-methylisophthalamide], in data set [3], the “% remaining, SIF” value was >80%. Further, the “% remaining, SGF” value in data set [4] was >80%. For the same molecule, in data set [2] (setting [7]), the area under the curve (AUC) was > 50 ng·h/mL. In addition, the Cmax in data set [2] (setting [7]) is > 50 ng/mL. The IC50 in data set [5] and in data set [6] was 1000 to 7940 nM throughout.

Turning to `CN(CCOCCOCCOCCC(=O)O)C(=O)c1cccc(C(=O)Nc2ccc(Cl)cc2-c2cc(C(=O)N[C@H]3CCCc4ccccc43)ccn2)c1` [Example 237, (S)-1-(3-(4-chloro-2-(4-(1,2,3,4-tetrahydronaphthalen-1-ylcarbamoyl)pyridin-2-yl)phenylcarbamoyl)phenyl)-2-methyl-1-oxo-5,8,11-trioxa-2-azatetradecan-14-oic acid], the “% remaining, SIF” value in data set [3] is on record as >80%. The “% remaining, SGF” value in data set [4] is >80%. In addition, in data set [1] (mean drug dose 130 mg/kg/day), the inhibition in vivo at 130 mg/kg/day is ≤ 10%. The same molecule showed an IC50 in data set [5] of 1000 to 7940 nM.

For `CN(CCOCCOCCOCCC(=O)O)C(=O)Cc1cccc(SCc2cccc(C(=O)Nc3ccc(Cl)cc3-c3cc(C(=O)N[C@H]4CCCc5ccccc54)ccn3)c2)c1` [Example 239, (S)-1-(3-(3-(4-chloro-2-(4-(1,2,3,4-tetrahydronaphthalen-1-ylcarbamoyl)pyridin-2-yl)phenylcarbamoyl)benzylthio)phenyl)-3-methyl-2-oxo-6,9,12-trioxa-3-azapentadecan-15-oic acid], in data set [3], the “% remaining, SIF” value is given as >80%. Besides, in data set [4], the “% remaining, SGF” value was 60-80%. For the same molecule, the AUC in data set [2] (setting [8]) was < 30 ng·h/mL. Besides, in data set [2] (Table 15, plasma 0.5-4 h), the highest concentration (Cmax) was < 30 ng/mL. For the same molecule, the IC50 in data set [5] and in data set [6] was < 1000 nM each time.

With `O=C(O)CCOCCOCCOCCOCCCc1cccc(C(=O)Nc2ccc(Cl)cc2-c2cc(C(=O)N[C@H]3CCCc4ccccc43)ccn2)c1` [Example 253, (S)-16-(3-(4-(chloro)-2-(4-(1,2,3,4-tetrahydronaphthalen-1-ylcarbamoyl)pyridin-2-yl)phenylcarbamoyl)phenyl)-4,7,10,13-tetraoxahexadecan-1-oic acid], in data set [3], the “% remaining, SIF” value is on record as >80%. For the same molecule, in data set [4], the “% remaining, SGF” value was 60-80%. The AUC in data set [2] (setting [8]) is < 10 ng·h/mL. Also, the maximum concentration (Cmax) in data set [2] (Table 15, plasma 0.5-4 h) was < 10 ng/mL. The IC50 in data set [5] and in data set [6] was < 1000 nM throughout.

As to `COCCNC(=O)[C@H]1CCCN(C(=O)c2cccc(C(=O)Nc3ccc(N4CCCCC4)cc3-c3cc(C(=O)N[C@H]4CCCc5ccccc54)ccn3)c2)C1` [Example 254, 2-(2-(3-((S)-3-(2-methoxyethylcarbamoyl)piperidine-1-carbonyl)benzamido)-5-(piperidin-1-yl)phenyl)-N—((S)-1,2,3,4-tetrahydronaphthalen-1-yl)isonicotinamide], in data set [3], the “% remaining, SIF” value is >80%. The “% remaining, SGF” value in data set [4] is given as >80%. Besides, in data set [2] (setting [7]), the area under the curve (AUC) is < 10 ng·h/mL and the Cmax was < 10 ng/mL. In data set [5], the IC50 was < 1000 nM. The IC50 in data set [6] is < 1000 nM.

In the case of `CCN(CC)c1ccc(NC(=O)c2cccc(CCCOCCOCCOCCOCCC(=O)NC(CO)(CO)CO)c2)c(-c2cc(C(=O)NCc3cccc(C(F)(F)F)c3)ccn2)c1` [Example 281], the “% remaining, SIF” value in data set [3] is on record as 20-40%. Besides, the “% remaining, SGF” value in data set [4] is >80%. In data set [2] (setting [7]), the AUC is < 10 ng·h/mL and the Cmax was < 10 ng/mL. Besides, the IC50 in data set [5] is < 1000 nM. Further, the IC50 in data set [6] is < 1000 nM.

Consider `CCN(CC)c1ccc(NC(=O)c2cccc(C(=O)N(C)CCN(C)CCOCCOCCOCCNC(=O)OC(C)(C)C)c2)c(-c2cc(C(=O)N[C@H]3CCCc4ccccc43)ccn2)c1` [Example 339, (S)-tert-Butyl 1-(3-(4-(diethylamino)-2-(4-(1,2,3,4-tetrahydronaphthalen-1-ylcarbamoyl)pyridin-2-yl)phenylcarbamoyl)phenyl)-2,5-dimethyl-1-oxo-8,11,14-trioxa-2,5-diazahexadecan-16-ylcarbamate], for which the “% remaining, SIF” value in data set [3] is >80%. Besides, the “% remaining, SGF” value in data set [4] is <20%. Moreover, the exposure (AUC) in data set [2] (setting [7]) is < 30 ng·h/mL. Moreover, the highest concentration (Cmax) in data set [2] (setting [7]) was < 10 ng/mL. The IC50 in data set [5] and in data set [6] was < 1000 nM each time.

Source of the values: patent publication US20140023611A1 (priority 2010, published 2014).
